Assay results: patent US10828305B2 (SHANGHAI PHARMACEUTICALS HOLDING CO., LTD., priority 2016, dated 2020)

What was measured:
ErbB2 kinase = ErbB2 kinase (Homo sapiens, UniProt P04626); assay: Enzymatic experiment on ErbB2 (HTRF kinEASE-TK); type: biochemical; conditions: ATP 4 μM; read-out: Kinase IC50 (nM) in vitro ErbB2
Procedure: (§1) Enzymatic Experiment on EGFR/ErbB2
(§2) Firstly, preparing 1× reaction buffer required for the kinase, 5× Enzymatic buffer (HEPES 20 mM pH7.0, NaN3 0.1%, BSA 0.05%, sodium orthovanadate 0.5 mM) in the HTRF kinEASE-TK kit was diluted to 1 time with deionized water, 50 nM Supplement Enzymatic buffer (SEB reagent), 1 mM MnCl2, 5 mM MgCl2 and 1 mM DTT were added. Secondly, preparing 5× compound, 10 mM test compound stock solution was diluted in multiple steps with DMSO in a 96-well compound plate to prepare 100× compound as initial concentration, which was then used as the first concentration to perform a 3-fold gradient dilution with DMSO to obtain 10 concentrations. Afterwards, 1 μl gradient dilution was added to 19 μl 1× reaction buffer to prepare 5× compound for use. Then 2 μl 5× compound was transferred from the 96 well plate into a 384-well plate. To the compound-free control wells was added with 2 μl the following liquid: 19 μl 1× reaction buffer with addition of 1 μl DMSO. To the blank control wells was added 2 μl 250 mM EDTA. The third step was enzymatic reaction, the kinase, substrate (TK Substrate-biotin) and ATP were formulated into 2.5× enzyme/substrate mixture and 2.5×ATP solution using 1× reaction buffer respectively. The final concentration of ErbB2 kinase was 0.06 ng/μl, the final concentration of ATP was 4 μM; the final concentration of EGFR kinase was 0.06 units/μl, the final concentration of ATP was 1.65 μM; 4 μl 2.5× enzyme/substrate mixture was added to a 384-well plate, which was incubated at room temperature for 5 minutes; 4 μl 2.5×ATP solution was added to each well and the mixture was allowed to react for 30 minutes at room temperature. The fourth step was termination of the reaction, HTRF Detection buffer was used to prepare a mixture of 2×TK Antibody-Eu(K) and Sa-XL665, the amount of TK Antibody-Eu(K) was 5 μl per well. After the enzymatic reaction was performed for 30 minutes, 10 μl of the above liquid was added to the 384-well plate and the mixture was allowed to react at room temperature for 1 hour. The data was measured on EnVision™, the laser of 337 nm wavelength was selected as the excitation light, RFU665 nM and RFU620 nM were measured, and […]/RFU620 nM×10000 was used as the final data for analysis.

EGFR kinase = EGFR kinase (Homo sapiens, UniProt P00533); assay: Enzymatic experiment on EGFR (HTRF kinEASE-TK); type: biochemical; conditions: ATP 1.65 μM; read-out: Kinase IC50 (nM) in vitro EGFR
Procedure: as §1, §2

BT-474 = assay: Proliferation inhibition assay in vitro, BT-474 (CellTiter-Glo); type: cell-based; conditions: Homo sapiens, 72 hours, read-out: IC50(nM) cell BT-474
Procedure: (§3) Proliferation Inhibition Assay In Vitro of Cell Lines
(§4) 1. Cell culture and inoculation: on the first day of the experiment, normal cultured cells were taken in the exponential growth phase, the cells were dispersed by digesting, then the cell density was adjusted to 8.8×10^4 cells/mL for BT-474 and 6.6×10^4 cells/mL for N87, 90 μl of which were inoculated to each well in a 96-well cell culture plate; after inoculation, the microplate was placed at condition of 37° C., 5% CO2 overnight. 2. Dosing to cells: on the second day of the experiment, the microplate was taken out from incubator, […], of 10× compound was separately added to each well of the microplate, 2 duplicated wells were set for each concentration, 9 dosing concentrations were set for each compound. According to different cell lines, the initial concentration of each compound was different. Upon completion of addition, the microplate was placed at condition of 37° C., 5% CO2 for 72 hours. 3. Data acquisition: the microplate was taken out from the incubator and allowed to stand at room temperature to equilibrate for 30 minutes. 100 μl CellTiter-Glo® Luminescent Cell Viability Assay reaction solution which had been equilibrated at room temperature was added to each well and the microplate was shaken at 1300 rpm for 2 minutes at room temperature. The microplate was centrifuged at 2000 rpm for 1 minute in a HERAEUS Multifuge X1R and then allowed to equilibrate at room temperature for 10 minutes. The […] signal was measured on EnVision™.

N87 = assay: Proliferation inhibition assay in vitro, N87 (CellTiter-Glo); type: cell-based; conditions: Homo sapiens; 72 hours; read-out: IC50(nM) cell N87
Procedure: as §3, §4

Chain of ErbB2 kinase (P04626 23-1255): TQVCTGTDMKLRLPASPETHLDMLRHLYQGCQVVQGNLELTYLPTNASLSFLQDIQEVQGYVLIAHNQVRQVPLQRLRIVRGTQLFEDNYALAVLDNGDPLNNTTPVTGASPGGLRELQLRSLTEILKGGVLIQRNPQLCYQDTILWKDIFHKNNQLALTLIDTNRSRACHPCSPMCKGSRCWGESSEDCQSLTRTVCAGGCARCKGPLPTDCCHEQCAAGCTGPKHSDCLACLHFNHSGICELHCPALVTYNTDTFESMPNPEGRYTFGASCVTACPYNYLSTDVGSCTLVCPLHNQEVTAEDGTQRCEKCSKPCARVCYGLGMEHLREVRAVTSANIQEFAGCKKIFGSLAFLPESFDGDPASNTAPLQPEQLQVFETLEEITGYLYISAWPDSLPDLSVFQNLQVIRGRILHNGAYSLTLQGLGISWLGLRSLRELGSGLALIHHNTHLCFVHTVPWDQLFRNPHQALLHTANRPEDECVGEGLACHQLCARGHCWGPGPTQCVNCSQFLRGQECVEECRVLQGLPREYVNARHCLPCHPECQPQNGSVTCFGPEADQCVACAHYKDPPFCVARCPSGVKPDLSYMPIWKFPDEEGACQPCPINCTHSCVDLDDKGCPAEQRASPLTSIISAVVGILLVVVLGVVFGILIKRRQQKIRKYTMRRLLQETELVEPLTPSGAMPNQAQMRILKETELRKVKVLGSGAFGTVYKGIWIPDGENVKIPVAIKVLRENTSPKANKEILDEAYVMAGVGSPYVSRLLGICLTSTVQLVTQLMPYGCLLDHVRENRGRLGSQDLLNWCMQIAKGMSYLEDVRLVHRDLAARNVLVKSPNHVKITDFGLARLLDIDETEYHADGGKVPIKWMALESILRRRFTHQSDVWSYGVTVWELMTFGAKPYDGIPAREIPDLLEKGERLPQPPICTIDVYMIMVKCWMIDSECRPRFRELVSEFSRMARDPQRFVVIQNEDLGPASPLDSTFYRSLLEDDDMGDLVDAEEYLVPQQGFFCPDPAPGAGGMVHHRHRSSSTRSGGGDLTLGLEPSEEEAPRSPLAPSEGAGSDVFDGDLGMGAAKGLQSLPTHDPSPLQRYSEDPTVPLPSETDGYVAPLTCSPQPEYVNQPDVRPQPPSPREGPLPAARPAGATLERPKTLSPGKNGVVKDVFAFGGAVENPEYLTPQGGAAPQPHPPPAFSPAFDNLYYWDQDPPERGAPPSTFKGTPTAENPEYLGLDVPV
Chain of EGFR kinase (P00533 25-1210): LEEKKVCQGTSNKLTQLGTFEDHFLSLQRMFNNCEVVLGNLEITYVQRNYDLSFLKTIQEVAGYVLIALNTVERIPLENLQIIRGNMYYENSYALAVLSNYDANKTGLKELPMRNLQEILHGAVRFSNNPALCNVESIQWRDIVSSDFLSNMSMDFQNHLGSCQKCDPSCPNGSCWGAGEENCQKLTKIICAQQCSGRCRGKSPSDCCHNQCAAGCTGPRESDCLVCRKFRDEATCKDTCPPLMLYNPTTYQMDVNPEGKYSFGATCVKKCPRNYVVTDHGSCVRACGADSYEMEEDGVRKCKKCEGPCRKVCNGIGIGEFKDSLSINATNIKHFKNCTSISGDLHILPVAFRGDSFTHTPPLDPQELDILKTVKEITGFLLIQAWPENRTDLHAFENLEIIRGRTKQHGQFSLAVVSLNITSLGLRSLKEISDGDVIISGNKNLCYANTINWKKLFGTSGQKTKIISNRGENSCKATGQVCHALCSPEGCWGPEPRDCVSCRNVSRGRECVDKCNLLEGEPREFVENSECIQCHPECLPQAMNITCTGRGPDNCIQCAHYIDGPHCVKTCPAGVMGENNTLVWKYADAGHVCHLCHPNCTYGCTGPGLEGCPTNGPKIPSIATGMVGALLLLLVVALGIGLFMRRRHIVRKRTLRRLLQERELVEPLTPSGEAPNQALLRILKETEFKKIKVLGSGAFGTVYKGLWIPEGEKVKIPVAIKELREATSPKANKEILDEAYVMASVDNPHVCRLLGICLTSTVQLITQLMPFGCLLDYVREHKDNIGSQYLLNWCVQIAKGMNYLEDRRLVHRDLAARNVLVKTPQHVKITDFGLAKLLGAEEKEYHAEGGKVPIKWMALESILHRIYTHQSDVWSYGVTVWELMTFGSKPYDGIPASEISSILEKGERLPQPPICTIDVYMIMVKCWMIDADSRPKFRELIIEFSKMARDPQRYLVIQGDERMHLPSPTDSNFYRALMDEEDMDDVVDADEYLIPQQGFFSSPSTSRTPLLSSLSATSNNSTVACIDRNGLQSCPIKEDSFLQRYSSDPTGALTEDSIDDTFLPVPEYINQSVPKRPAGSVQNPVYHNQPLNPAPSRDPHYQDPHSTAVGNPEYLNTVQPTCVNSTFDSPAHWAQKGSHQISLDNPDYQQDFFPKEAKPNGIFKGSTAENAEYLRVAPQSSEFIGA

Structure (SMILES)	IC50 (ErbB2 kinase) [nM]	IC50 (EGFR kinase) [nM]	IC50 (BT-474) [nM]	IC50 (N87) [nM]
Cc1cc(Nc2ncnc3ccc(NC4=N[C@H](C)CO4)cc23)ccc1Oc1cc2nncn2cn1 [Embodiment 7, (R)—N^4-(4-([1,2,4]triazolo[4,3-c]pyrimidin-7-yloxy)-3-methylphenyl)-N^6-(4-methyl-4,5-dihydrooxazol-2-yl)quinazoline-4,6-diamine]	8.1	164	45	71
Cc1cc(Nc2ncnc3ccc(NC4=N[C@@H](C)CO4)cc23)ccc1Oc1cc2nncn2cn1 [Embodiment 8]	7.8	115	43.4	68.7
Cc1cc(Nc2ncnc3ccc(NC4=NC(C)(C)CS4)cc23)ccc1Oc1cc2nncn2cn1 [Embodiment 9, N^4-(4-([1,2,4]triazolo[4,3-c]pyrimidin-7-yloxy)-3-methylphenyl)-N^6-(4,4-dimethyl-4,5-dihydrothiazol-2-yl)quinazoline-4,6-diamine]	7.4	35.9	33.4	39.5
Cc1cc(Nc2ncnc3ccc(NC(=O)N4CCN(C)CC4)cc23)ccc1Oc1cc2nncn2cn1 [Embodiment 10, N-(4-((4-([1,2,4]triazolo[4,3-c]pyrimidin-7-yloxy)-3-methylphenyl)amino)quinazolin-6-yl)-4-methylpiperazine-1-carboxamide]	12.6	143	92.3	200
Cc1cc(Nc2ncnc3ccc(NC(=S)NC(C)(CO)CO)cc23)ccc1Oc1cc2nncn2cn1 [Embodiment 12, 1-(4-((4-([1,2,4]triazolo[4,3-c]pyrimidin-7-yloxy)-3-methylphenyl)amino)quinazoline-6-yl)-3-(1,3-dihydroxy-2-methylpropan-2-yl)thiourea]	4.3	231	136	482
Cc1cc(Nc2ncnc3ccc(NC4=NC(C)(CO)CO4)cc23)ccc1Oc1cc2nncn2cn1 (stereo not shown) [Embodiment 13, (2-((4-((4-([1,2,4]triazolo[4,3-c]pyrimidin-7-yloxy)-3-methylphenyl)amino)quinazolin-6-yl)amino)-4-methyl-4,5-dihydrooxazol-4-yl)methanol]	2.6	15.2	47.9	204
COCC(=O)NC/C=C/c1ccc2ncnc(Nc3ccc(Oc4cc5nncn5cn4)c(C)c3)c2c1 [Embodiment 14, 2-methoxy-N-((E)-3-(4-(3-methyl-4-([1,2,4]triazolo[4,3-c]pyrimidin-7-yloxy)anilino)-6-quinazolinyl)allyl)acetamide]	1.7	115	35.2	94.1
Cc1cc(Nc2ncnc3ccc(-c4ccc(CNCCS(C)(=O)=O)o4)cc23)ccc1Oc1cc2nncn2cn1 [Embodiment 15, N-(4-([1,2,4]triazolo[4,3-c]pyrimidin-7-yloxy)-3-methylphenyl)-6-(5-(((2-(methylsulfonyl)ethyl)amino)methyl)furan-2-yl)quinazolin-4-amine]	1.2	14.9	17.4	33.2
C=C(F)C(=O)Nc1ccc2ncnc(Nc3ccc(Oc4cc5nncn5cn4)c(C)c3)c2c1 [Embodiment 16, N-(4-((4-([1,2,4]triazolo[4,3-c]pyrimidin-7-yloxy)-3-methylphenyl)amino)quinazolin-6-yl)-2-fluoroacrylamide]	3.4	32.3	7.7	5.6
Cc1cc(Nc2ncnc3ccc(NC(=O)CC(C)(C)O)cc23)ccc1Oc1cc2nncn2cn1 [Embodiment 17, N-(4-((4-([1,2,4]triazolo[4,3,c]pyrimidin-7-yloxy)-3-methylphenyl)amino)quinoline-6-yl)-3-hydroxy-3-methylbutanamide]	7.9	80.9	304	712
CC1(C)COC(Nc2ccc3ncnc(Nc4ccc(Oc5cc6nncn6cn5)c(F)c4)c3c2)=N1 [Embodiment 19, N^4-(4-([1,2,4]triazolo[4,3-c]pyrimidin-7-yloxy)-3-fluorophenyl)-N^6-(4,4-dimethyl-4,5-dihydrooxazol-2-yl)-quinazoline-4,6-diamine]	3.3	22.1	98.2	125
Cc1cc(Nc2ncnc3ccc(-c4ccco4)cc23)ccc1Oc1cc2nncn2cn1 [Embodiment 21, N-(4-([1,2,4]triazolo[4,3-c]pyrimidin-7-yloxy)-3-methylphenyl)-6-(furan-2-yl)-quinazolin-4-amine]	2.2	43.5	140	73.8
Cc1cc(Nc2ncnc3ccc(-c4ccc(CN5CCN(S(C)(=O)=O)CC5)o4)cc23)ccc1Oc1cc2nncn2cn1 [Embodiment 22, N-(4-([1,2,4]triazolo[4,3-c]pyrimidin-7-yloxy)-3-methylphenyl)-6-(5-((4-(methanesulfonyl)piperazin-1-yl)methyl)furan-2-yl)quinazolin-4-amine]	4.1	18	40.7	35.6
COc1cc2ncnc(Nc3ccc(Oc4cc5nncn5cn4)c(C)c3)c2cc1OC1CCN(C(=O)/C=C/CN(C)C)CC1 [Embodiment 23]	5.2	0.7	79.5	55.7
Cc1cc(Nc2ncnc3ccc(NC4=NCC(C)O4)cc23)ccc1Oc1cc2nncn2cn1 (stereo not shown) [Embodiment 24, N^4-(4-([1,2,4]triazolo[4,3-c]pyrimidin-7-yloxy)-3-methylphenyl)-N^6-(5-methyl-4,5-dihydrooxazol-2-yl)quinazoline-4,6-diamine]	4.1	127	128	177
Cc1cc(Nc2ncnc3ccc(NC4=NCC5(CCN(C(=O)OC(C)(C)C)CC5)O4)cc23)ccc1Oc1cc2nncn2cn1 [Embodiment 25, tert-butyl 2-((4-((4-([1,2,4]triazolo[4,3-c]pyrimidin-7-yloxy)-3-methylphenyl)amino)quinazolin-6-yl)amino)-1-oxa-3,8-diazaspiro[4.5]dec-2-en-8-carboxylate]	53.3	499	984	464
Cc1cc(Nc2ncnc3ccc(NC4=NC5(CO4)CN(C(=O)OC(C)(C)C)C5)cc23)ccc1Oc1cc2nncn2cn1 [Embodiment 26]	3.8	96.8	122	130
Cc1cc(Nc2ncnc3ccc(NC4=NC5(CO4)CC(O)C5)cc23)ccc1Oc1cc2nncn2cn1 (stereo not shown) [Embodiment 27, 6-((4-((4-([1,2,4]triazolo[4,3-c]pyrimidin-7-yloxy)-3-methylphenyl)amino)quinazolin-6-yl)amino)-7-oxa-5-azaspiro[3,4]oct-5-en-2-ol]	1.92	8.1	112	543
Cc1cc(Nc2ncnc3ccc(NC4=NC5(CO4)CN(C)C5)cc23)ccc1Oc1cc2nncn2cn1 [Embodiment 30, N^4-(4-([1,2,4]triazolo[4,3-c]pyrimidin-7-yloxy)-3-methylphenyl)-N^6-(2-methyl-7-oxa-2,5-diazaspiro[3.4]oct-5-en-6-yl)quinazoline-4,6-diamine]	4.9	17.3	141	771
